Work on `CCc1c(C(=O)C(N)=O)c2c(OCC(=O)OC)cc3c(c2n1Cc1ccccc1)CCCC3` yielded a melting point of 51 to 53 °C. With `Cc1c(Cl)cc(C(=O)C=[N+]=[N-])cc1S(N)(=O)=O` the melting point was 174 to 176 °C. `C#Cc1cc2cn[nH]c2c(C(=O)NC2(C3CC3)CC2)c1NC(=O)c1cc(C(F)(F)F)nn1-c1ncccc1Cl` showed a melting point of 246 to 248 °C. In the case of `CCCCCCCCCCCNC(=O)NCc1ccccc1`, the melting point was 97 °C. Compound `CC(C)C[C@H](NC(=O)[C@H](Cc1c[nH]cn1)NC(=O)[C@H](Cc1cccc2ccccc12)NC(=O)OCc1ccccc1)[C@@H](O)CCO` has a melting point of 196 to 198 °C. With `C[Si](C)(C)OC1(C#N)CCOc2c(Cl)cc(Cl)cc21` (stereo not given) the melting point was 77 to 79 °C. Compound `CC(C)(C)OC(=O)N1CCC2(CC1)CC(=O)N(O)C2=O` has a melting point of 151 to 154 °C. Compound `COc1cc2cc3c(Nc4ccc(OCc5ccccc5)c(Cl)c4)c(C#N)cnc3cc2cc1OCCCl` has a melting point of 182 to 185 °C. With `CC(C)(C)OC(=O)N1CCC(O)(CS(=O)(=O)NC(c2ccccc2)c2ccccc2)CC1` the melting point was 121 to 123 °C. `CCCCCCNC1=NS(=O)(=O)c2ccc(Cl)cc2N1` gave a melting point of 244 to 247 °C. `O=C(O)CC1Cc2ccccc2C1` showed a melting point of 85 to 88 °C. Work on `CC(C)(C)NC(=O)Nc1ccc(-c2c[nH]c(=O)cn2)cc1` yielded a melting point of over 300 °C. Work on `COC(=O)C1CSC(=O)C1` (stereo not given) yielded a melting point of 33 to 35 °C. For `COc1ccc(-c2cc3cc(OC)cc(C=NO)c3o2)cc1`, the melting point was 185 to 187 °C. `Cc1ccc(N)c(C(=S)NCC2CC2)c1` showed a melting point of 124 °C. For `O=c1c2ccccc2c(-c2ccccc2)c2n1CCCC2O` (stereo not given), the melting point was 220 to 222 °C. For `O=C(O)CCc1ccc2c(c1)OC[C@@H](Cc1ccccc1)[C@@H]2O` (relative stereo), the melting point was 161 to 162 °C. With `Cc1nc(C(C)O)c2n1-c1ccc(Cl)cc1C(c1ccccc1Cl)=NC2` (stereo not given) the melting point was 197 to 199 °C. For `COc1cc(OC)c(C2=NC(C)(C)CO2)cc1OC`, the melting point was 84 to 86 °C. In the case of `CC12CC(=O)C3C(CCC4CC(O)CCC43C)C1CCC2C(=O)COc1ccc(N)cc1` (stereo not given), the melting point was 179 to 180 °C. Work on `Cc1c(-c2ccccc2)oc2c(CNCCO)cccc2c1=O` yielded a melting point of 117 °C. In the case of `COc1ccc(C2=NN(c3ccc(C(=O)Nc4ccc(-c5ccc(=O)[nH]n5)cc4)cc3)C(=O)[C@H]3CC=CC[C@@H]23)cc1OC` (relative stereo), the melting point was 272 to 273 °C. `COc1ccc2c(c1)CN(C(=O)N(C)C)N=C2Cc1c(Cl)cncc1Cl` showed a melting point of 160 to 162 °C. Compound `OC/C=C/CC/C=C/CC/C=C/CO` has a melting point of 37 to 38 °C. With `O=CN(O)C(CS(=O)(=O)c1ccccc1Oc1ccc(OC(F)(F)F)cc1)C(CO)CO` (stereo not given) the melting point was 129 to 131 °C. With `Cc1ccc(S(=O)(=O)N2CCCC2c2cccc(Cl)c2)cc1` (racemic) the melting point was 107 °C. With `O=C(O)c1ccc(OCCNC(=O)C2Cc3ccccc3N2S(=O)(=O)c2ccc(-c3ccc(F)cc3Cl)cc2)cc1` (stereo not given) the melting point was 90 °C. `CC(=O)N1c2ccc(O)cc2C(C)=CC1(C)C` showed a melting point of 214 to 216 °C. Work on `Cc1ncccc1C#N` yielded a melting point of 55 °C. For `CCCCC/C(=C\C=C\C(=S)NCCCCc1cccnc1)c1ccc(OC)cc1`, the melting point was 121 to 122 °C. `CC(C)Oc1nccc(-c2c(-c3ccc(F)cc3)ncn2C2CCC(=O)CC2)n1` gave a melting point of 161 to 163 °C. Compound `NS(=O)(=O)c1cccc(C(=O)Cl)c1` has a melting point of 123 °C. `CC(C)(C)OC(=O)Nc1ccc(F)c(F)c1C(=O)O` gave a melting point of 160 °C. `CC(c1oc2ccc(F)cc2c(=O)c1-c1ccccc1F)n1cnc2c(N)ncnc21` (stereo not given) showed a melting point of 245 to 248 °C. For `O=C(O)CCCc1ccc(-c2ccccc2)cc1`, the melting point was 118 to 119 °C. `Nc1nc(-c2ccccc2)nc2c1=NCC(=O)N=2` showed a melting point of 330 to 332 °C. `O=C(O)CCC/C=C\C[C@H]1[C@@H]2CC[C@@H](C2)[C@@H]1NC(=O)c1ccc(S(=O)(=O)n2cccc2)s1` gave a melting point of 113 to 114 °C. `O=C1NCCN1C1CCCc2ccccc21` (stereo not given) gave a melting point of 134 to 140 °C. In the case of `NNC(=O)c1sc2cnccc2c1Oc1ccc(C(F)(F)F)cc1`, the melting point was 146 to 147 °C. Work on `CCCc1ccc(-c2ccc(-c3ccc(CC)cc3)cc2F)s1` yielded a melting point of 41 °C. With `O=C1CCC(N2Cc3c(OCc4ccc(CN5CCC(F)(F)CC5)cc4)cccc3C2=O)C(=O)N1` (stereo not given) the melting point was 193 to 195 °C. Work on `CCOC(=O)C1=C(N)N=C(SCC)C(C(=O)OCC)C1c1cccc([N+](=O)[O-])c1` (stereo not given) yielded a melting point of 187 °C. `COc1nc2cc(Br)c3c(c2nc1OC)CCN(C)C3` gave a melting point of 162 °C. Work on `CSc1sccc1C#N` yielded a melting point of 112 to 115 °C. `O=CCCN1CCc2cc(Br)ccc2C1=O` gave a melting point of 93 to 94 °C. Compound `C=CC1CN(c2ncc(C(=O)N(CCCCC)c3cccc(C(F)(F)F)c3)c(N)n2)C(=O)N1` (stereo not given) has a melting point of 135 to 137 °C. In the case of `CCC1(C)OC(c2ccc(S(C)(=O)=O)cc2)=C(c2ccccc2)C1=O` (stereo not given), the melting point was 115 to 117 °C. `O=C(Nc1cn(C2CCCCO2)nc1C(=O)NCCC(F)(F)F)c1ccccn1` (stereo not given) gave a melting point of 144 to 145 °C. Work on `CCc1cccc2c3c([nH]c12)C(CC)(CCF)OCC3` (stereo not given) yielded a melting point of 118 to 119 °C. Work on `COC(=O)c1nn(C2CCCCO2)cc1NC(=O)c1ccc(C)nc1` (stereo not given) yielded a melting point of 142 to 143 °C. Work on `Cc1ccc(S(=O)(=O)On2nnc3ccc([N+](=O)[O-])cc32)cc1` yielded a melting point of 142 to 144 °C. `CCCCCCCC(=O)N(C)Cc1cccc(-c2ccc(CCC(=O)O)s2)c1` showed a melting point of 67 to 68 °C. With `O=C1CC(Cc2ccc(Cl)cc2)CN1` (stereo not given) the melting point was 95 to 98 °C. With `CC(=O)OC1CCC2(C)C3CCC4(C)C(C(C)=O)CCC4C3CC(Cl)C2(Cl)C1` (stereo not given) the melting point was 187 °C. Work on `COc1ccc(C(=O)Nc2cccc3[nH]ccc23)c(O)c1` yielded a melting point of 190 °C. Work on `Cc1cc(Cn2nnn(-c3cccc(C(F)(F)F)c3)c2=O)ccc1N` yielded a melting point of 89 to 94 °C. For `Brc1cnc(Sc2ncccn2)nc1`, the melting point was 178 to 180 °C. Compound `O=c1[nH]c(CCl)c(Br)c(=O)[nH]1` has a melting point of 245 °C. `OCC1=CC=C(COc2cccc(O)c2)SS1` gave a melting point of 116 °C. With `C=CCn1c(=O)c2cccnc2n(-c2cccc([N+](=O)[O-])c2)c1=O` the melting point was 188 to 189 °C. Work on `CC(C)Nc1nc2c(F)c(Cl)c(Cl)cc2[nH]1` yielded a melting point of 212 to 215 °C. For `CS(=O)(=O)Nc1ccc(OC2SCC(O)C(O)C2O)cn1` (stereo not given), the melting point was 201 to 204 °C. With `O=S(=O)(c1ccc(F)c(C(F)(F)F)c1)N1CCC(Nc2nc(Nc3cccc(C(F)(F)F)c3)nc(OCC(F)(F)F)n2)CC1` the melting point was 250 to 252 °C. In the case of `Cc1[nH]c2ccc(Br)cc2c1Cc1cccnc1`, the melting point was 188 to 190 °C. `COc1ccccc1-n1c(-c2cc(-c3ccc(S(C)(=O)=O)cc3)c(N3CCOCC3)s2)nc2ccccc2c1=O` showed a melting point of 222 to 223 °C. Compound `C=Cc1c(NC(=O)c2cn(C)nc2C(F)(F)F)cccc1C(C)(C)C` has a melting point of 118 to 119 °C. Work on `CN(C)c1ccc(NC(=O)CCC2(c3ccc(Cl)cc3)Nc3cccnc3N2)cc1` (stereo not given) yielded a melting point of 216 to 218 °C. For `CS(=O)c1nccc(N)n1` (stereo not given), the melting point was 158 to 159 °C. `Cc1ccc(CN2C(=O)C(C)Oc3c(C(=O)NC4CN5CCC4CC5)cc(Cl)cc32)cc1` (stereo not given) gave a melting point of 156 °C. Work on `COc1cc(-c2nc(N)sc2CCC2CCCCC2)c(OC)cc1Cl` yielded a melting point of 110 to 111 °C. For `O=C(O)Cc1ccc2c(c1)sc1cccc(Cl)c12`, the melting point was 203 to 206 °C. With `Cc1ccc(S(=O)(=O)NCC(=O)c2ccccc2)cc1` the melting point was 148 to 149 °C. Work on `Cc1[nH]cnc1Cc1cccc(CO)c1O` yielded a melting point of 126 to 130 °C. Work on `O=C(O)C(CCc1ccccc1[N+](=O)[O-])N1C(=O)c2ccccc2C1=O` (stereo not given) yielded a melting point of 177 to 179 °C. For `CCOC(=O)c1ccc(NC(=O)C=C(c2ccc(Br)cc2)c2ccc(Br)cc2)cc1`, the melting point was 207 to 208 °C. With `CC(C)C1=C(C#N)C(c2cccc(Cl)c2Cl)c2c[nH]nc2N1` (stereo not given) the melting point was over 250 °C. `CCn1c(=O)n(-c2ccc(N3CCn4c3nc3cccnc34)cc2)c2ncccc21` showed a melting point of 255 to 256 °C. `COc1cc(CCCC2OCCO2)ccc1OCc1nc(-c2ccccc2)oc1C` gave a melting point of 74 to 75 °C. In the case of `N#Cc1c(-c2ccccc2)cc(Cl)nc1Cl`, the melting point was 167 to 169 °C. `O=[N+]([O-])c1ccc(Cl)c(C=Cc2nc3ccccc3o2)c1` showed a melting point of 230 °C. Compound `COC(=O)c1ccc(COc2c(C)c(C)c3c(c2C)C(c2ccc(C(C)C)cc2)C(C)(C)O3)cc1` (stereo not given) has a melting point of 108 to 110 °C. With `O=C(OC(c1ccccc1)c1ccccc1)c1c(-c2ccccc2)oc2c(CCl)cccc2c1=O` the melting point was 186 °C. For `CC(C)(C(=O)Nc1cccc(Cl)c1)N1OCC(CI)=C(c2ccccc2)C1=O`, the melting point was 135 to 137 °C. `COc1ccc(-c2nc(CCOc3ccc(CC4OC(=O)NC4=O)cc3)c(C)o2)cc1` (stereo not given) showed a melting point of 141 to 143 °C. Compound `COc1cc(C(=O)c2ncc3ccc(N)cn23)ccc1[N+](=O)[O-]` has a melting point of 252 °C. `COc1cc(O)ccc1C1=NC2=CCC(=O)NC2=N1` gave a melting point of over 270 °C. Work on `CC1(CCl)COC(N)=N1` (stereo not given) yielded a melting point of 61 to 62 °C. `CC(=O)OCC1=NC(NC(=O)Nc2cccc(C)c2)C(=O)N(CC(=O)N2CCCCCCC2)c2c(C)cccc21` (stereo not given) gave a melting point of 112 to 114 °C. Work on `Cc1c(OCCCOc2cc(C(C)(C)C)c(O)c(C(C)(C)C)c2C)cc(C(C)(C)C)c(O)c1C(C)(C)C` yielded a melting point of 120 °C. Compound `CC(C)(C)S(=O)(=O)NCc1cc(-c2ccc(Cl)c(Cl)c2)n(Cc2ccc(Cl)c(Cl)c2)n1` has a melting point of 127 °C. Work on `CS(=O)(=O)c1ccc(-c2c(-c3ccccc3)[nH]c3ccc(Cl)cc23)cc1` yielded a melting point of 273 to 275 °C. `CNc1nc(C)c(C(=O)C(C#N)=CN(C)C)s1` showed a melting point of 245 to 246 °C. In the case of `CN1C(=O)C([S-])=C(SC(N)=[NH2+])C1=O`, the melting point was 150 to 152 °C. Compound `COc1ccc(C2(C(C)(C)O)CCN(C)CC2)cc1` has a melting point of 114 to 115 °C. `CCOC(=O)C1Cc2c([nH]c3ccccc23)CN1` (stereo not given) gave a melting point of 126 to 128 °C. In the case of `COc1ccc(COC(=O)N[C@@H](Cc2ccccc2)C(=O)O)cc1`, the melting point was 87 to 88 °C. Work on `COc1cc(Nc2ncc(-c3ccccc3)o2)ccc1-c1cnco1` yielded a melting point of 212 to 215 °C. For `CC(=O)C1CCC2C3CCC4CC=CCC4(C)C3C(N)CC12C` (stereo not given), the melting point was 127 to 129 °C. Compound `CCNC(=O)C1OC(n2cnc3c(NC(=O)Nc4ccc(S(=O)(=O)N5CCCCC5)cc4)ncnc32)C(O)C1O` (stereo not given) has a melting point of 176 to 178 °C. Work on `CCCc1c2nc(C(=O)OCC)cc(C)c2cc2c(=O)cc(C(=O)OCC)oc12` yielded a melting point of 165 to 168 °C.
